Laboratory results published in patent US20230219904A1 (SYNGENTA CROP PROTECTION AG, priority 2020, published 2023).

How the values were obtained:
Assay type in all cases: in vivo
Setaria faberi (SETFA) [1] = experiment: Pre-emergence herbicidal glasshouse test (Table B1); conditions: evaluated after 13 days
Method: (§1) Seeds of a variety of test species are sown in standard soil in pots (Lolium perenne (LOLPE), Amaranthus retoflexus (AMARE), Abutilon theophrasti (ABUTH), Setaria faberi (SETFA), Echinochloa crus-galh (ECHCG), Ipomoea hederacea (IPOHE)). After cultivation for one day (pre-emergence) or after 8 days cultivation (post-emergence) under controlled conditions in a glasshouse (at 24/16° C., day/night; 14 hours light; 65% humidity), the plants are sprayed with an aqueous spray solution derived from the formulation of the technical active ingredient in acetone/water (50:50) solution containing 0.5% Tween 20 (polyoxyethelyene sorbitan monolaurate, CAS RN 9005-64-5). Compounds are applied at 500 g/h unless otherwise indicated. The test plants are then grown in a glasshouse under controlled conditions in a glasshouse (at 24/16° C., day/night; 14 hours light; 65% humidity) and watered twice daily. After 13 days for pre and post-emergence, the test is evaluated for the percentage damage caused to the plant. The biological activities are shown in the following table on a five-point scale (5=80-100%; 4=60-79%; 3=40-59%; 2=20-39%; 1=0-19%).

[2] = test system: Amaranthus retoflexus (AMARE); experiment: as above; conditions: evaluated after 13 days
Method: as §1

[3] = test system: Ipomoea hederacea (IPOHE); experiment: as above; conditions: evaluated after 13 days
Method: as §1

[4] = test system: Abutilon theophrasti (ABUTH); experiment: as above; conditions: evaluated after 13 days
Method: as §1

Setaria faberi (SETFA) [5] = experiment: Post-emergence herbicidal glasshouse test (Table B1); conditions: evaluated after 13 days
Method: as §1

[6] = test system: Echinochloa crus-galh (ECHCG); experiment: as above; conditions: evaluated after 13 days
Method: as §1

[7] = test system: Amaranthus retoflexus (AMARE); experiment: as above; conditions: evaluated after 13 days
Method: as §1

[8] = test system: Ipomoea hederacea (IPOHE); experiment: as above; conditions: evaluated after 13 days
Method: as §1

[9] = test system: Abutilon theophrasti (ABUTH); experiment: as above; conditions: applied at 125 g/ha, evaluated after 13 days
Method: as §1

[10] = test system: Echinochloa crus-galh (ECHCG); experiment: Pre-emergence herbicidal glasshouse test (Table B1); conditions: evaluated after 13 days
Method: as §1

SMILES | PRE Application SETFA, percentage damage on five-point scale (Setaria faberi (SETFA) [1]; applied at 125 g/ha) | PRE Application AMARE, percentage damage on five-point scale ([2]; applied at 125 g/ha) | PRE Application IPOHE, percentage damage on five-point scale ([3]; applied at 125 g/ha) | PRE Application ABUTH, percentage damage on five-point scale ([4]; applied at 125 g/ha) | POST Application SETFA, percentage damage on five-point scale (Setaria faberi (SETFA) [5]; applied at 125 g/ha) | POST Application ECHCG, percentage damage on five-point scale ([6]; applied at 125 g/ha) | POST Application AMARE, percentage damage on five-point scale ([7]; applied at 125 g/ha) | POST Application IPOHE, percentage damage on five-point scale ([8]; applied at 125 g/ha) | POST Application ABUTH, percentage damage on five-point scale [9] | PRE Application ECHCG, percentage damage on five-point scale ([10]; applied at 125 g/ha) | PRE Application SETFA, percentage damage on five-point scale (Setaria faberi (SETFA) [1]; applied at 500 g/h) | PRE Application ECHCG, percentage damage on five-point scale ([10]; applied at 500 g/h) | PRE Application AMARE, percentage damage on five-point scale ([2]; applied at 500 g/h) | PRE Application IPOHE, percentage damage on five-point scale ([3]; applied) | PRE Application ABUTH, percentage damage on five-point scale ([4]; applied at 500 g/h) | POST Application SETFA, percentage damage on five-point scale (Setaria faberi (SETFA) [5]; applied at 500 g/h) | POST Application ECHCG, percentage damage on five-point scale ([6]; applied at 500 g/h) | POST Application AMARE, percentage damage on five-point scale ([7]; applied at 500 g/h) | POST Application IPOHE, percentage damage on five-point scale ([8]; applied at 500 g/h)
Cn1nnnc1NC(=O)c1ccc(OC(F)F)c(NC(=O)c2cccc(Cl)n2)c1Cl [Compound 1.083] | 4 (4=60-79%) | 5 (5=80-100%) | 3 (3=40-59%) | 5 (5=80-100%) | 4 (4=60-79%) | 2 (2=20-39%) | 4 (4=60-79%) | 4 (4=60-79%) | 4 (4=60-79%) | – | – | – | – | – | – | – | – | – | –
Cn1nnnc1NC(=O)c1ccc(OC(F)(F)F)c(NC(=O)C2(F)CC2)c1Cl [Compound 1.054] | 5 (5=80-100%) | 5 (5=80-100%) | 4 (4=60-79%) | 5 (5=80-100%) | 5 (5=80-100%) | – | 5 (5=80-100%) | 5 (5=80-100%) | 5 (5=80-100%) | 5 (5=80-100%) | – | – | – | – | – | – | – | – | –
Cn1nnnc1NC(=O)c1ccc(OC(F)F)c(NC(=O)c2ncc(Cl)cc2Cl)c1Cl [Compound 1.087] | 4 (4=60-79%) | 5 (5=80-100%) | 4 (4=60-79%) | 4 (4=60-79%) | 4 (4=60-79%) | – | 4 (4=60-79%) | 4 (4=60-79%) | 4 (4=60-79%) | 1 (1=0-19%) | – | – | – | – | – | – | – | – | –
CCn1nnnc1NC(=O)c1ccc(OC(F)(F)F)c(NC(=O)c2ncccc2F)c1Cl [Compound 1.094] | – | – | – | – | – | – | – | – | – | – | 1 (1=0-19%) | 1 (1=0-19%) | 5 (5=80-100%) | 1 (1=0-19%) | 1 (1=0-19%) | 5 (5=80-100%) | 5 (5=80-100%) | 5 (5=80-100%) | 5 (5=80-100%)
CCn1nnnc1NC(=O)c1ccc(OC(F)(F)F)c(NC(=O)C(C)OC)c1Cl (stereo not drawn) [Compound 1.071] | 5 (5=80-100%) | 5 (5=80-100%) | 5 (5=80-100%) | 5 (5=80-100%) | 5 (5=80-100%) | 5 (5=80-100%) | 4 (4=60-79%) | 4 (4=60-79%) | – | 5 (5=80-100%) | – | – | – | – | – | – | – | – | –
Cn1nnnc1NC(=O)c1ccc(OC(F)F)c(NC(=O)c2cc(C(F)(F)F)ccn2)c1Cl [Compound 1.053] | 4 (4=60-79%) | 5 (5=80-100%) | 4 (4=60-79%) | 5 (5=80-100%) | 5 (5=80-100%) | 3 (3=40-59%) | 5 (5=80-100%) | 4 (4=60-79%) | – | 4 (4=60-79%) | – | – | – | – | – | – | – | – | –
CCOCCC(=O)Nc1c(OC(F)(F)F)ccc(C(=O)Nc2nnnn2CC)c1Cl [Compound 1.077] | 3 (3=40-59%) | 5 (5=80-100%) | 5 (5=80-100%) | 5 (5=80-100%) | 5 (5=80-100%) | 5 (5=80-100%) | 5 (5=80-100%) | 4 (4=60-79%) | – | 5 (5=80-100%) | – | – | – | – | – | – | – | – | –
CCOCC(=O)Nc1c(OC(F)(F)F)ccc(C(=O)Nc2nnnn2CC)c1Cl [Compound 1.074] | 4 (4=60-79%) | 5 (5=80-100%) | 5 (5=80-100%) | 5 (5=80-100%) | 5 (5=80-100%) | 5 (5=80-100%) | 5 (5=80-100%) | 5 (5=80-100%) | – | 4 (4=60-79%) | – | – | – | – | – | – | – | – | –
COCCCC(=O)Nc1c(OC(F)(F)F)ccc(C(=O)Nc2nnnn2C)c1Cl [Compound 1.058] | 3 (3=40-59%) | 5 (5=80-100%) | 5 (5=80-100%) | 5 (5=80-100%) | 4 (4=60-79%) | 5 (5=80-100%) | 4 (4=60-79%) | 4 (4=60-79%) | – | 5 (5=80-100%) | – | – | – | – | – | – | – | – | –
CCC(=O)N(CC)c1c(OC(F)F)ccc(C(=O)Nc2nnnn2C)c1C(F)(F)F [Compound 1.091] | 4 (4=60-79%) | 5 (5=80-100%) | 3 (3=40-59%) | 5 (5=80-100%) | 4 (4=60-79%) | 5 (5=80-100%) | 4 (4=60-79%) | 3 (3=40-59%) | – | 5 (5=80-100%) | – | – | – | – | – | – | – | – | –
Cc1c(C(F)F)c(C(=O)Nc2c(OC(F)F)ccc(C(=O)Nc3nnnn3C)c2Cl)nn1C [Compound 1.052] | 5 (5=80-100%) | 5 (5=80-100%) | 4 (4=60-79%) | 5 (5=80-100%) | 5 (5=80-100%) | 4 (4=60-79%) | 5 (5=80-100%) | 4 (4=60-79%) | – | 5 (5=80-100%) | – | – | – | – | – | – | – | – | –
CCC(=O)N(C)c1c(OC(F)F)ccc(C(=O)Nc2nnnn2CC)c1Cl [Compound 1.097] | 4 (4=60-79%) | 5 (5=80-100%) | 5 (5=80-100%) | 5 (5=80-100%) | 5 (5=80-100%) | 4 (4=60-79%) | 4 (4=60-79%) | 4 (4=60-79%) | – | 5 (5=80-100%) | – | – | – | – | – | – | – | – | –
CCC(=O)Nc1c(OC(F)F)ccc(C(=O)Nc2nnnn2C)c1C(F)(F)F [Compound 1.096] | 1 (1=0-19%) | 4 (4=60-79%) | 3 (3=40-59%) | 3 (3=40-59%) | 3 (3=40-59%) | 4 (4=60-79%) | 4 (4=60-79%) | 3 (3=40-59%) | – | 1 (1=0-19%) | – | – | – | – | – | – | – | – | –
